For 4 molecules, Kd results are on record in ChEMBL document CHEMBL3991601, “The target landscape of clinical kinase drugs” (Science, 2017).

Assay [1] deals with Casein kinase I isoform gamma-1 (Homo sapiens, UniProt Q9HCP0).
Assay [2] concerns the target ATP-dependent RNA helicase DDX3X (Homo sapiens, UniProt O00571).
Assay [3] addresses Mitogen-activated protein kinase kinase kinase kinase 1 (Homo sapiens, UniProt Q92918).
The target in assay [4] is T1, NUAK family SNF1-like kinase 2 (Homo sapiens, UniProt Q9H093).
T1 sequence (Q9H093 whole entry): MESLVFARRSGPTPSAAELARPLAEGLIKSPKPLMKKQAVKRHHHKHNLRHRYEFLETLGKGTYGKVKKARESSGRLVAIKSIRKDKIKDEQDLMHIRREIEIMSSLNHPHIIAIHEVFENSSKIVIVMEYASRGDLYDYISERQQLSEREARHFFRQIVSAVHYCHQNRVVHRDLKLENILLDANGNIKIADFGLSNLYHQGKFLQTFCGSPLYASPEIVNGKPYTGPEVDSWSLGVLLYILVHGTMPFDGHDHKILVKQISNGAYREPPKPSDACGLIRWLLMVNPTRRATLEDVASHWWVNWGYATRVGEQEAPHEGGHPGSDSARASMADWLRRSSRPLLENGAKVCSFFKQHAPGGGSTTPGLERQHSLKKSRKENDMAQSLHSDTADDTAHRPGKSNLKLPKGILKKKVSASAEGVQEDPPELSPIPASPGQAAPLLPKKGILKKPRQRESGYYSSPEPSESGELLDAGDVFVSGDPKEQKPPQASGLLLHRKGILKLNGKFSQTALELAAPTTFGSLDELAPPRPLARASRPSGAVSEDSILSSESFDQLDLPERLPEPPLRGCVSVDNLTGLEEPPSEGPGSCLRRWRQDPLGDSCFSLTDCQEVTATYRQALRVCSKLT

The target of assay [5] is T2, Phosphorylase b kinase gamma catalytic chain, liver/testis isoform (Homo sapiens, UniProt P15735).
T2 sequence (P15735 whole entry): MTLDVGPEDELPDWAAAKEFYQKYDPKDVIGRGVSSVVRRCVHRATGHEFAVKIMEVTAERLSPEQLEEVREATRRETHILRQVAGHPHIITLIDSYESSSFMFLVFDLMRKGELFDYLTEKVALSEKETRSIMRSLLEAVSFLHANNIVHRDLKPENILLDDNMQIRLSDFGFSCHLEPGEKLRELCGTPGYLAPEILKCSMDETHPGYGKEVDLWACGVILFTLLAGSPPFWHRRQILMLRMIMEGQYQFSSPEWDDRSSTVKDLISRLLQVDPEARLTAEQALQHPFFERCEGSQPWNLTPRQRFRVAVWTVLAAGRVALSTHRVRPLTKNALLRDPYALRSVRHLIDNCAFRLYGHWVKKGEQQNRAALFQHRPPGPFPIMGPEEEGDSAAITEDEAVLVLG

The target in assay [6] is Receptor-interacting serine/threonine-protein kinase 3 (Homo sapiens, UniProt Q9Y572).
Assay [7] deals with T3, Non-receptor tyrosine-protein kinase TNK1 (Homo sapiens, UniProt Q13470).
T3 sequence (Q13470 whole entry): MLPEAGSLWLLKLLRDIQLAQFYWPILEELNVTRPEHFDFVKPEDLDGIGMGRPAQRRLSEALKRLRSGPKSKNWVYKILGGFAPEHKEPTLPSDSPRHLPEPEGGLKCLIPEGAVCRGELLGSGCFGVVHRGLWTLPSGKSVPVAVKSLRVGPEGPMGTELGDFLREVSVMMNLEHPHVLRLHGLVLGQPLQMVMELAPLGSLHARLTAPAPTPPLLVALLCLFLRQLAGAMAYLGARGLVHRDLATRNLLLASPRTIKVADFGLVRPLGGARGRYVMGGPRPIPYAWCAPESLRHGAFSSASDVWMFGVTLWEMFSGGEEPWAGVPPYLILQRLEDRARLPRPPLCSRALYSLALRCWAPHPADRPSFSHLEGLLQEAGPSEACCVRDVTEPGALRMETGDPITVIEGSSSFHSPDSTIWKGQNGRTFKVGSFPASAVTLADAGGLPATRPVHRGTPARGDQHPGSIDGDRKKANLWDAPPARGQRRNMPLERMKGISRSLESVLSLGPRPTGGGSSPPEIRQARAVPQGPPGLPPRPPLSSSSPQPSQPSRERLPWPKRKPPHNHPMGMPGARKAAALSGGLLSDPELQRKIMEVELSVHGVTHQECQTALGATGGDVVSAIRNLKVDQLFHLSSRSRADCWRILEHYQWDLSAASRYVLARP

The target of assay [8] is T4, General transcription and DNA repair factor IIH helicase subunit XPD (Homo sapiens, UniProt P18074).
T4 sequence (P18074 whole entry): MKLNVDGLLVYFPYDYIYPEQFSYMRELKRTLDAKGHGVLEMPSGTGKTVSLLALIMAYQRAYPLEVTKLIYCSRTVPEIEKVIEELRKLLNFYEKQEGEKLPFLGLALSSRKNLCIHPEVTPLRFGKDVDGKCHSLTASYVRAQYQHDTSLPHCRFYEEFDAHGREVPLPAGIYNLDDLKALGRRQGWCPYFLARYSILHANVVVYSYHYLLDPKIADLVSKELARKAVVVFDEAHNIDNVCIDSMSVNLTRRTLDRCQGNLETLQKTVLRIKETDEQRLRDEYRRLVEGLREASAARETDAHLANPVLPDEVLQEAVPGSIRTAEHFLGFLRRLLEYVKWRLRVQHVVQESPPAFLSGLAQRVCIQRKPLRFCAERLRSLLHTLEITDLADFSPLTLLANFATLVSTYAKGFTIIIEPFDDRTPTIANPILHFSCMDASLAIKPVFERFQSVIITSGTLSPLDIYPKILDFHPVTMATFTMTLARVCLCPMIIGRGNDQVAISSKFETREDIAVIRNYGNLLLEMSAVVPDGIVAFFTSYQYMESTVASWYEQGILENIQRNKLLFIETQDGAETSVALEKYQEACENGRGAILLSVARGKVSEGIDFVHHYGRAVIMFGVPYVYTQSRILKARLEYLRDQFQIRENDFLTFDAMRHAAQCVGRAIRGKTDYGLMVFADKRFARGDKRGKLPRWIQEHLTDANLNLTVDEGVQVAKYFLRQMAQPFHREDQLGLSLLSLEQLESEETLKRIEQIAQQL
To be noted: read-out: Kd apparent; k-562, colo 205, sk-n-be(2) and mv-4-11.

Activity calls are given as the source filed them. Rule as the data show it, for most assays here: actives have a measured Kd and inactives only a lower limit. Where only a bound is given, the exact number is not on record here.
Also: in the data inactive means no Kd found up to 30 µM.

Casein kinase I isoform gamma-1, sequence (Q9HCP0 whole entry, canonical isoform): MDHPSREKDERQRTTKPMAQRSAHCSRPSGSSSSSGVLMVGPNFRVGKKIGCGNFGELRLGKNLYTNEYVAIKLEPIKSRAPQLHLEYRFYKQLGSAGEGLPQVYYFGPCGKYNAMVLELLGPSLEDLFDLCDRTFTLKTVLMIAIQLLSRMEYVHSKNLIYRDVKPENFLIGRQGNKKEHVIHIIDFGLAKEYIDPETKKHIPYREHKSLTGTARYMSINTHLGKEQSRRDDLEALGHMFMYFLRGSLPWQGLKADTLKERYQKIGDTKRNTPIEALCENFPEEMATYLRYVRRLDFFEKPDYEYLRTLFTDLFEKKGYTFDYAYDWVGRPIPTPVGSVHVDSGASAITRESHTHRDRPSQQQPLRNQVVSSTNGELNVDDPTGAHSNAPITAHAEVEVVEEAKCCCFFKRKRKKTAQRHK
Receptor-interacting serine/threonine-protein kinase 3, sequence (Q9Y572 whole entry): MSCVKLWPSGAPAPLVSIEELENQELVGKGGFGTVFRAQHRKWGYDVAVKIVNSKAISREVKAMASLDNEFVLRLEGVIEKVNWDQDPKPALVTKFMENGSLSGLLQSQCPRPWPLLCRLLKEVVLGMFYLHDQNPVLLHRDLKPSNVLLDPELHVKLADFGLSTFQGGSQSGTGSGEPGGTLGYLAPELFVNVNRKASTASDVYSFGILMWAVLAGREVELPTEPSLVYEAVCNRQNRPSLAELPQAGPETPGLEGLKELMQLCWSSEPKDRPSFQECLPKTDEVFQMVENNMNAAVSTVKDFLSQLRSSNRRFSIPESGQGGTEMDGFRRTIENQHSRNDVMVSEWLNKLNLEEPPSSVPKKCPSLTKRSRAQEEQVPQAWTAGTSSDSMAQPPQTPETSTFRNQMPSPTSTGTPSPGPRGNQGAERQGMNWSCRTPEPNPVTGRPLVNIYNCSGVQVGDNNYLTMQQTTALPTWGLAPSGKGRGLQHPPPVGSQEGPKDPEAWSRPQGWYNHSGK
ATP-dependent RNA helicase DDX3X, sequence (O00571 whole entry): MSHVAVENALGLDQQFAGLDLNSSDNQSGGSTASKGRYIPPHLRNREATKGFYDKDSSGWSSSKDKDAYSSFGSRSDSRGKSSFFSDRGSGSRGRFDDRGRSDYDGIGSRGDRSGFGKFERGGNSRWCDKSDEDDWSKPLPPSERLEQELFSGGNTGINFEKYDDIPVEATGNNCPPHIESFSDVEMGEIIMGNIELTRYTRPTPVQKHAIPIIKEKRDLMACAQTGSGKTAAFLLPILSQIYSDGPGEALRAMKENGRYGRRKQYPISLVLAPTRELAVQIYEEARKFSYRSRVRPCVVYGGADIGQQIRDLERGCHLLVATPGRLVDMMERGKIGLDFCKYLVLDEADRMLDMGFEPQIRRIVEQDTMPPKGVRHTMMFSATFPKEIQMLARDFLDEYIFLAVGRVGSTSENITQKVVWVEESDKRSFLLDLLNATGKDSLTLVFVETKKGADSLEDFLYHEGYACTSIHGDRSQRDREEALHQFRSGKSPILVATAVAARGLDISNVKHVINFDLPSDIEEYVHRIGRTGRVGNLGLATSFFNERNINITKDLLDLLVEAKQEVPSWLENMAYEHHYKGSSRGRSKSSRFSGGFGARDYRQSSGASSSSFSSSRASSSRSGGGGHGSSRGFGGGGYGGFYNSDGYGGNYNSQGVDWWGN
Mitogen-activated protein kinase kinase kinase kinase 1, sequence (Q92918 whole entry): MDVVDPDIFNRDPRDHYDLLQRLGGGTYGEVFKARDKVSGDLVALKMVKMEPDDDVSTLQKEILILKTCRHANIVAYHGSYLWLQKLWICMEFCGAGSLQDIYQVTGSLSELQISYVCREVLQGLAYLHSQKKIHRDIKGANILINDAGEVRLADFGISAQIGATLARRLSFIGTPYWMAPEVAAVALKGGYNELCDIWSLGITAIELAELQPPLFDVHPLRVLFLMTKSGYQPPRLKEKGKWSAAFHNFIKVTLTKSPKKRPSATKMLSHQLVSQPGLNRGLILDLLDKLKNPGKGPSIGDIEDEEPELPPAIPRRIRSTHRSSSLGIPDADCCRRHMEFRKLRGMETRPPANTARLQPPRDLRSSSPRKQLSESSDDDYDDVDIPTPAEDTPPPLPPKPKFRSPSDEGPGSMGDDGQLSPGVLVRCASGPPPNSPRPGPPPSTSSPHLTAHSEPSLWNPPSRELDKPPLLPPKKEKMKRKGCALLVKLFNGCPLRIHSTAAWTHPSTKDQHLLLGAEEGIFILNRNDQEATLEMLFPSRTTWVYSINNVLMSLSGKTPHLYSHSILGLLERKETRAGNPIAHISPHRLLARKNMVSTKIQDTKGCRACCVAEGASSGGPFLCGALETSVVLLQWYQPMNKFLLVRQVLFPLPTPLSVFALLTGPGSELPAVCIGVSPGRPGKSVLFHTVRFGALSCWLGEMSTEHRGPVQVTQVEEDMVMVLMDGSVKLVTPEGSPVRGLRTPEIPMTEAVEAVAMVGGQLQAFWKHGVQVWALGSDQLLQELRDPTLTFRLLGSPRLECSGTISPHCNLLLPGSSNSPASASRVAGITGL

With `Cn1cc(-c2ccc3nnc(C(F)(F)c4ccc5ncccc5c4)n3n2)cn1` [JNJ-38877605], the Kd in assay [1], in assay [2], in assay [3], in assay [4], in assay [5] and in assay [6] was > 30 µM (inactive) each time. The Kd in assay [7] and in assay [8] was > 30 µM (inactive) in each case.

With `CN1CC[C@@H](c2c(O)cc(O)c3c(=O)cc(-c4ccccc4Cl)oc23)[C@@H]1CO`, the Kd in assay [1], in assay [2], in assay [3], in assay [4], in assay [5] and in assay [6] was > 30 µM (inactive) throughout. The Kd in assay [7] and in assay [8] was > 30 µM (inactive) in each case.

Turning to `CN1N=C(N)c2cn([C@@H]3O[C@H](COP(=O)(O)O)[C@@H](O)[C@H]3O)c3ncnc1c23` [TRICIRIBINE PHOSPHATE], the Kd in assay [1], in assay [2], in assay [3], in assay [4], in assay [5] and in assay [6] was > 30 µM (inactive) throughout. The Kd in assay [7] and in assay [8] was > 30 µM (inactive) each time.

Turning to `Cc1cc(-c2cc(O)ccc2Cl)cc2nnc(Nc3ccc(OCCN4CCCC4)cc3)nc12`, the Kd in assay [1] is > 30 µM (inactive); in assay [2], > 30 µM (inactive); in assay [3], > 30 µM (inactive); in assay [4] it was > 30 µM (inactive); in assay [5], > 30 µM (inactive); in assay [6], 0.003 µM (active). Moreover, the Kd in assay [7] and in assay [8] was > 30 µM (inactive) throughout.
